For data set [1], the system named is CCO18CD colon fibroblasts stimulated with TGF-β. Description: High throughput microscopy-based anti-fibrotic drug screen (α-SMA and collagen 1 expression). Type of data set: cell-based. The source says: FIG. 1 is images of cells from high throughput microscopy-based analysis of an FDA-approved drug library for potential anti-fibrotic properties.
FIGS. 3A-3C are images of cells from high throughput microscopy-based analysis of potential drugs for anti-fibrotic properties.

Data set [2] concerns key fibrosis genes (ACTA2, COL1A1, COL3A1, TGFBR1) in transplanted intestinal tissue. Description: Subcutaneous intestinal transplant fibrosis model, qPCR of fibrosis genes. It is filed as in vivo. The settings on record: mouse; one subcutaneous injection 15 mg/kg; one week after implantation; versus oral pirfenidone 100 mg/kg three times daily. The source says:
A 1-2 cm segment of bowel was excised from one mouse and implanted in the subcutaneous space on the neck of another mouse of the same genetic background. […] One week after tissue implantation and initiation of treatment, the segment of transplanted intestine tissue was excised to assess expression of key genes involved in fibrosis (α-SMA, ACTA2; collagen type 1, COL1A1; collagen type 3, COL3A1; TGF-β receptor 1, TGFBR1) by qPCR.

The conditions of data set [3]: mouse, in vivo, sc, 50 mg/kg.
The subject of data set [4] is intestinal fibroblast cells. Description: Cell survival in the microscopy-based screen. The settings on record: at effective concentrations.

`Cc1ccc(=O)n(-c2ccccc2)c1` [pirfenidone]: the “concentration causing reduction in α-SMA and collagen production” value in data set [1] (TGF-β stimulated colon fibroblasts) is reported as 4 mM. Also, the “concentration level at which induced expression of α-SMA and/or collagen was reduced (in words)” value in data set [1] (TGF-β stimulated intestinal fibroblasts) is recorded as “millimolar concentrations”.

`Clc1ccc(CSC(Cn2ccnc2)c2ccc(Cl)cc2Cl)cc1` (centres unmarked) [sulconazole, 1-[2-[(4-chlorophenyl)methylsulfanyl]-2-(2,4-dichlorophenyl)ethyl]imidazole]: the “repression of fibrosis genes (ACTA2, COL1A1, COL3A1, TGFBR1)” value in data set [2] is listed as “significantly more effective than pirfenidone”. The mortality entry in data set [3] is “death of mice”. Also, the “impact on cell survival” value in data set [4] is given as “minimal impact on cell survival”.

These data come from patent US20240226067A9, “ANTI-FIBROTIC THERAPIES” (THE JOHNS HOPKINS UNIVERSITY, priority 2021, published 2024).
